One assay relates to B. catarrhalis M3. Nature of the assay: Minimum inhibitory concentration (MIC), liquid dilution test. As to conditions: Moraxella catarrhalis, minimal medium with 0.4% BH broth, 37° C., 18-24 h. It is filed as cell-based. On the procedure: (§1) Determination of the Minimum Inhibitory Concentration (MIC):
(§2) The minimum inhibitory concentration (MIC) is the minimum concentration of an antibiotic with which the growth of a test microbe is inhibited over 18-24 h. The inhibitor concentration can in these cases be determined by standard microbiological methods (see, for example, The National Committee for Clinical Laboratory Standards. Methods for dilution antimicrobial susceptibility tests for bacteria that grow aerobically; approved standard-fifth edition. NCCLS document M7-A5 [ISBN 1-56238-394-9]. NCCLS, 940 West Valley Road, Suite 1400, Wayne, Pa. 19087-1898 USA, 2000). The MIC of the compounds of the invention is determined in the liquid dilution test on the 96-well microtiter plate scale. The bacterial microbes are cultivated in a minimal medium (18.5 mM Na2HPO4, 5.7 mM KH2PO4, 9.3 mM NH4Cl, 2.8 mM MgSO4, 17.1 mM NaCl, 0.033 μg/ml thiamine hydrochloride, 1.2 μg/ml nicotinic acid, 0.003 μg/ml biotin, 1% glucose, 25 μg/ml of each proteinogenic amino acid with the exception of phenylalanine; [H.-P. Kroll; unpublished]) with addition of 0.4% BH broth (test medium). In the case of Enterococcus faecalis ICB 27159, heat-inactivated fetal calf serum (FCS; GibcoBRL, Germany) is added to the test medium in a final concentration of 10%. Overnight cultures of the test microbes are diluted to an OD578 of 0.001 (to 0.01 in the case of Enterococci) in fresh test medium, and incubated 1:1 with dilutions of the test substances (1:2 dilution steps) in test medium (150 μl final volume). The cultures are incubated at 37° C. for 18-24 hours; Enterococci in the presence of 5% CO2.
(§3) The lowest substance concentration in each case at which bacterial growth was no longer visible is defined as the MIC. […] The compounds show a graded antibacterial effect against most of the test microbes.

A further assay deals with S. aureus 25701. The assay is described as above. The class given is cell-based. As to conditions: Staphylococcus aureus, minimal medium with 0.4% BH broth, 37° C., 18-24 h. The procedure:
as §1, §2, §3

The subject of assay [1] is Enterococcus faecalis ICB 27159. Described as above. It is filed as cell-based. As to conditions: ICB27159, test medium with 10% FCS, 5% CO2, 37° C., 18-24 h, read-out: MIC E. faecalis ICB27159. The procedure: as §1, §2, §3
Assay [2] concerns S. aureus 133. Described as above. The class given is cell-based. On the procedure:
as §1, §2, §3

Another assay relates to S. aureus RN4220. Described as above. As to conditions: Staphylococcus aureus, minimal medium with 0.4% BH broth, 37° C., 18-24 h. It is filed as cell-based. The procedure: as §1, §2, §3
The subject of assay [3] is translation of firefly luciferase, Escherichia coli MRE 600 S30 extract. Nature of the assay: In vitro transcription-translation with E. coli extracts. As to conditions: plasmid pBESTLuc, 30° C., 60 min, luciferase luminescence, read-out: IC50 E. coli MRE600 Translation. The class given is biochemical. On the procedure: In vitro Transcription-translation with E. coli Extracts
An S30 extract is prepared by harvesting logarithmically growing Escherichia coli MRE 600 (M. Müller; University Freiburg), washing and employing them as described for the in vitro transcription-translation assay (Müller, M. and Blobel, G. Proc Natl Acad Sci USA (1984) 81, pp. 7421-7425).
1 μl of cAMP (11.25 mg/ml) are additionally added per 50 μl of reaction mix to the reaction mix for the in vitro transcription-translation assay. The assay mixture amounts to 105 μl, with 5 μl of the substance to be tested being introduced in 5% strength DMSO. 1 μg/100 μl of mixture of the plasmid pBESTLuc (Promega, Germany) are used as transcription template. After incubation at 30° C. for 60 min, 50 μl of luciferin solution (20 mM tricine, 2.67 mM MgSO4, 0.1 mM EDTA, 33.3 mM DTT pH 7.8, 270 μM CoA, 470 μM luciferin, 530 μM ATP) are added, and the resulting bioluminescence is measured in a luminometer for 1 minute. The IC50 is indicated by the concentration of an inhibitor which leads to 50% inhibition of the translation of firefly luciferase.

Assay [4] has as its target translation of firefly luciferase, S. aureus 133 S30 extract. Nature of the assay: In vitro transcription-translation with S. aureus extracts. It is filed as biochemical. As to conditions: reporter plasmid pla, 30° C., 60 min, luciferase luminescence. From the text:
(§4) In vitro Transcription-translation with S. aureus Extracts
(§5) Construction of an S. aureus Luciferase Reporter Plasmid
(§6) A reporter plasmid which can be used in an in vitro transcription-translation assay for S. aureus is constructed by using the plasmid pBESTluc (Promega Corporation, USA). The E. coli tac promoter present in this plasmid in front of the firefly luciferase is replaced by the capAl promoter with appropriate Shine-Dalgarno sequence from S. aureus. The primers CAPFor 5′-[…] […]-3′ and CAPRev 5′-[…]-3′ are used for this. The primer CAPFor contains the capAl promoter, the ribosome binding site and the 5′ region of the luciferase gene. After PCR using pBESTluc as template it is possible to isolate a PCR product which contains the firefly luciferase gene with the fused capAl promoter. This is, after restriction with Clal and HindIII, ligated into the vector pBESTluc which has likewise been digested with ClaI and HindIII. The resulting plasmid pla is able to replicate in E. coli and be used as template in the S. aureus in vitro transcription-translation assay.
(§7) Preparation of S30 Extracts from S. aureus
(§8) Six liters of BHI medium are inoculated with a 250 ml overnight culture of an S. aureus strain and allowed to grow at 37° C. until the OD600 nm is 2-4. The cells are harvested by centrifugation and washed in 500 ml of cold buffer A (10 mM Tris acetate, pH 8.0, 14 mM Mg acetate, 1 mM DTT, 1 M KCl). After renewed centrifugation, the cells are washed in 250 ml of cold buffer A with 50 mM KCl, and the resulting pellets are frozen at −20° C. for 60 min. The pellets are thawed on ice in 30 to 60 min and taken up to a total volume of 99 ml in buffer B (10 mM Tris acetate, pH 8.0, 20 mM Mg acetate, 1 mM DTT, 50 mM KCl). 1.5 ml portions of lysostaphin (0.8 mg/ml) in buffer B are introduced into 3 precooled centrifuge cups and each mixed with 33 ml of the cell suspension. The samples are incubated at 37° C., shaking occasionally, for 45 to 60 min, before 150 μl of a 0.5 M DTT solution are added. The lyzed cells are centrifuged at 30 000×g and 4° C. for 30 min. The cell pellet is taken up in buffer B and then centrifuged again under the same conditions, and the collected supernatants are combined. The supernatants are centrifuged again under the same conditions, and 0.25 volume of buffer C (670 mM Tris acetate, pH 8.0, 20 mM Mg acetate, 7 mM Na3 phosphenolpyruvate, 7 mM DTT, 5.5 mM ATP, 70 μM amino acids (complete from Promega), 75 μg of pyruvate kinase (Sigma, Germany)/ml are added to the upper 2/3 of the supernatant. The samples are incubated at 37° C. for 30 min. The supernatants are dialyzed against 2 l of dialysis buffer (10 mM Tris acetate, pH 8.0, 14 mM Mg acetate, 1 mM DTT, 60 mM K acetate) in a dialysis tube with a 3500 Da cut-off with one buffer change at 4° C. overnight. The dialysate is concentrated to a protein concentration of about 10 mg/ml by covering the dialysis tube with cold PEG 8000 powder (Sigma, Germany) at 4° C. The S30 extracts can be stored in aliquots at −70° C.
(§9) Determination of the IC50 in the S. aureus in vitro Transcription-translation Assay
(§10) Inhibition of protein biosynthesis of the compounds can be shown in an in vitro transcription-translation assay. The assay is based on the cell-free transcription and translation of firefly luciferase using the reporter plasmid pla as template and cell-free S30 extracts obtained from S. aureus. The activity of the resulting luciferase can be detected by luminescence measurement. […]

For assay [5], the target named is translation of firefly luciferase, S. aureus RN4220 S30 extract. The description is as above. It is filed as biochemical. As to conditions: reporter plasmid pla, 30° C., 60 min, luciferase luminescence.
Text: as §4, §5, §6, §7, §8, §9, §10

In assay [6] the test system is S. aureus 133. Nature of the assay: Systemic infection with S. aureus 133 (mouse sepsis model). The class given is in vivo. Particulars: female CFW1 mice, i.p. infection, i.v. therapy 30 minutes after infection, survival recorded for 6 days. The procedure:
Systemic Infection with S. aureus 133
The suitability of the compounds of the invention for treating bacterial infections can be shown in various animal models. For this purpose, the animals are generally infected with a suitable virulent microbe and then treated with the compound to be tested, which is in a formulation which is adopted to the particular therapy model.
For this purpose, S. aureus 133 cells are cultured overnight in BH broth (Oxoid, Germany). The overnight culture is diluted 1:100 in fresh BH broth and expanded for 3 hours. The bacteria which are in the logarithmic phase of growth are centrifuged and washed 2× with buffered physiological saline solution. A cell suspension in saline solution with an extinction of 50 units is then adjusted in a photometer (Dr. Lange LP 2W). After a dilution step (1:15), this suspension is mixed 1:1 with a 10% strength mucine suspension. 0.2 ml of this infection solution is administered i.p. per 20 g of mouse. This corresponds to a cell count of about 1-2×10E6 microbes/mouse. The i.v. therapy takes place 30 minutes after the infection. Female CFW1 mice are used for the infection test. The survival of the animals is recorded for 6 days. The animal model is adjusted so that untreated animals die within 24 h after the infection.

Where [7] appears, read: Staphylococcus aureus, 133, read-out: MIC S. aureus 133.

The source of these data is patent US20070129288A1, “Antibacterial amide macrocycles” (BAYER HEALTHCARE AG, priority 2002, published 2007).

One may read the MIC as the lowest concentration that inhibits growth of the organism. As usually defined, the IC50 is the concentration at which inhibition is half-maximal.

≈ marks a conversion by molar mass, not a printed value. Where a name gives a salt, the structure may show the parent alone. Read-outs that look alike come from different tables or passages of the source.

For `NC[C@H](O)C[C@@H]1NC(=O)[C@@H](N)Cc2cc(ccc2O)-c2ccc(O)c(c2)C[C@@H](C(N)=O)NC1=O` [Example 1, (8S,11S,14S)-14-Amino-11-[(2R)-3-amino-2-hydroxypropyl]-5,17-dihydroxy-10,13-dioxo-9,12-diazatricyclo[14.3.1.1^2,6]henicosa-1(20),2(21),3,5,16,18-hexaene-8-carboxamide dihydrochloride], the MIC stood at 1.56 µM in the assay with B. catarrhalis M3; 6.25 µM in the assay with S. aureus 25701; 6.25 µM in [1]; 0.2 µM with S. aureus 133 [2] (setting [7]); 0.1 µM against S. aureus RN4220. The figures for the IC50 in [3], in assay [4] and in [5] were 150 nM, 900 nM and 500 nM, respectively.

Regarding `NC[C@H](O)C[C@@H]1NC(=O)[C@@H](N)Cc2cc(ccc2O)-c2ccc(O)c(c2)C[C@@H](C(=O)NCc2ccccc2)NC1=O` [Example 2, (8S,11S,14S)-14-Amino-11-[(2R)-3-amino-2-hydroxypropyl]-N-benzyl-5,17-dihydroxy-10,13-dioxo-9,12-diazatricyclo[14.3.1.1^2,6]henicosa-1(20),2(21),3,5,16,18-hexaene-8-carboxamide dihydrochloride], the MIC against B. catarrhalis M3 was 25 µM; against S. aureus 25701, 50 µM; in assay [1] it was 25 µM; in the assay on S. aureus 133 [2] (setting [7]), 25 µM; in the assay with S. aureus RN4220, 12.5 µM. Also, the “therapeutic effect ED100” value in the assay with S. aureus 133 [6] amounted to 1.25 mg/kg. Besides, the IC50 was 550 nM in assay [3], 1300 to 4500 nM in [4] and 3400 nM in assay [5].

On to `NC[C@H](O)C[C@@H]1NC(=O)[C@@H](N)Cc2cc(ccc2O)-c2ccc(O)c(c2)C[C@@H](C(=O)NCC(N)=O)NC1=O` [Example 37], for which, in the assay with S. aureus 133 [2] (Staphylococcus aureus, 133, minimal medium with 0.4% BH broth, 37° C., 18-24 h, read-out: MIC S. aureus 133), the MIC was 0.8 µM (≈ 0.423 µg/mL). The molecule also displayed an IC50 in assay [4] of 500 nM.
